Source: ChEMBL document CHEMBL5331129, “Discovery of NAFLD-Improving Agents by Promoting the Degradation of Keap1” (J Med Chem, 2023)
The source made the active and inactive calls. No cut-off for these calls is given here.

Key:
[1] = molecular target: T1, Protein cereblon/Kelch-like ECH-associated protein 1 (Mus musculus) (UniProt Q9Z2X8+Q8C7D2); test: PROTAC activity at CRBN/Keap1 in mouse AML12 cells assessed as degradation of Keap1 protein incubated for 6 to 48 hrs by Western blotting analysis; format: cell-based; settings: time 6-48 hrs
[2] = molecular target: T1, Protein cereblon/Kelch-like ECH-associated protein 1 (Mus musculus); test: PROTAC activity at CRBN/Keap1 in mouse AML12 cells assessed as degradation of Keap1 protein at 0.5 to 2 uM incubated for 6 to 48 hrs by Western blotting analysis; format: cell-based; settings: dose 0.5-2 µM, time 6-48 hrs, TDE = time-dependent effect
[3] = molecular target: T1, Protein cereblon/Kelch-like ECH-associated protein 1 (Mus musculus); test: PROTAC activity at CRBN/Keap1 in mouse AML12 cells assessed as degradation of Keap1 protein at 1 uM incubated for 24 hrs by Western blotting analysis; format: cell-based
[4] = molecular target: T1, Protein cereblon/Kelch-like ECH-associated protein 1 (Mus musculus); test: PROTAC activity at CRBN/Keap1 in mouse AML12 cells assessed as degradation of Keap1 protein level at 1 uM preincubated with MLN-4924 followed by compound addition and incubated for 24 hrs by Western blotting analysis; format: cell-based
[5] = molecular target: T1, Protein cereblon/Kelch-like ECH-associated protein 1 (Mus musculus); test: PROTAC activity at CRBN/Keap1 in mouse AML12 cells assessed as degradation of Keap1 protein level at 1 uM preincubated with CDDO followed by compound addition and incubated for 24 hrs by Western blotting analysis; format: cell-based
[6] = tested on: AML12; test: Cytotoxicity against mouse AML12 cells at 0.5 uM incubated for 24 hrs by MTT assay; format: toxicity, cell-based; settings: aml12, 24 h
[7] = tested on: AML12; test: Antioxidant activity against free fatty acid induced oxidative stress in mouse AML12 cells assessed as downregulation of Keap1 protein expression level at 0.125 to 0.5 uM incubated for 24 hrs by immunofluorescence staining analysis; format: functional, cell-based; settings: dose 0.125-0.5 µM
[8] = tested on: AML12; test: Antioxidant activity against free fatty acid induced oxidative stress in mouse AML12 cells assessed as upregulation of Nrf2 protein expression level at 0.125 to 0.5 uM incubated for 24 hrs by immunofluorescence staining analysis; format: functional, cell-based; settings: dose 0.125-0.5 µM
[9] = tested on: AML12; test: Antioxidant activity against free fatty acid induced oxidative stress in mouse AML12 cells assessed as increase in SOD level at 0.125 to 0.5 uM; format: functional, cell-based; settings: dose 0.125-0.5 µM
[10] = tested on: Mus musculus; test: Antioxidant activity against MCD diet-induced oxidative stress in C57Bl/6 mouse model of NAFLD assessed as downregulation of liver Keap1 protein expression level at 0.5 to 2 mg/kg,ip administrated for 4 weeks by immunoblot analysis; format: functional, organism-based; settings: dose 0.5-2 mg/kg
[11] = tested on: Mus musculus; test: Antioxidant activity against MCD diet-induced oxidative stress in C57Bl/6 mouse model of NAFLD assessed as upregulation of liver Nrf2 protein expression level at 0.5 to 2 mg/kg,ip administrated for 4 weeks by immunoblot analysis; format: functional, organism-based; settings: dose 0.5-2 mg/kg
[12] = tested on: Mus musculus; test: Antioxidant activity against MCD diet-induced oxidative stress in C57Bl/6 mouse model of NAFLD assessed as upregulation of liver Nrf2 protein expression level at 0.5 to 2 mg/kg,ip administrated for 4 weeks by immunofluorescence staining analysis; format: functional, organism-based; settings: dose 0.5-2 mg/kg
[13] = tested on: Mus musculus; test: Antioxidant activity against MCD diet-induced oxidative stress in C57Bl/6 mouse model of NAFLD assessed as upregulation of liver HO-1 protein expression level at 0.5 to 2 mg/kg,ip administrated for 4 weeks by immunohistochemical staining assay; format: functional, organism-based; settings: dose 0.5-2 mg/kg
[14] = tested on: Mus musculus; test: Antioxidant activity against MCD diet-induced oxidative stress in C57Bl/6 mouse model of NAFLD assessed as decrease in liver ROS level at 0.5 to 2 mg/kg,ip administrated for 4 weeks by immunostaining analysis; format: functional, organism-based; settings: dose 0.5-2 mg/kg
[15] = tested on: AML12; test: Antioxidant activity against free fatty acid induced oxidative stress in mouse AML12 cells assessed as reduction in intracellular lipid accumulation at 0.5 uM incubated for 24 hrs by Oil Red O staining based microscopic analysis; format: functional, cell-based
[16] = Toxicity in MCD diet-induced oxidative stress in C57Bl/6 mouse model of NAFLD assessed as decrease in ratio of liver weight to body weight at ip administrated for 4 weeks […]; format: organism-based; settings: in vivo, 672 h
[17] = tested on: Mus musculus; test: Antioxidant activity against MCD diet-induced oxidative stress in C57Bl/6 mouse model of NAFLD assessed as reduction of serum LDL-C level at ip administrated for 4 weeks; format: functional, organism-based
[18] = tested on: Mus musculus; test: Antioxidant activity against MCD diet-induced oxidative stress in C57Bl/6 mouse model of NAFLD assessed as increase in serum HDL-C level at ip administrated for 4 weeks; format: functional, organism-based
[19] = tested on: Mus musculus; test: Antioxidant activity against MCD diet-induced oxidative stress in C57Bl/6 mouse model of NAFLD assessed as reduction of serum TC level at 0.5 to 2 mg/kg,ip administrated for 4 weeks; format: functional, organism-based; settings: dose 0.5-2 mg/kg
[20] = tested on: Mus musculus; test: Antioxidant activity against MCD diet-induced oxidative stress in C57Bl/6 mouse model of NAFLD assessed as reduction of serum AST level at 0.5 to 2 mg/kg,ip administrated for 4 weeks; format: functional, organism-based; settings: dose 0.5-2 mg/kg
[21] = tested on: Mus musculus; test: Antioxidant activity against MCD diet-induced oxidative stress in C57Bl/6 mouse model of NAFLD assessed as reduction of liver macrophage infiltration at 0.5 to 2 mg/kg,ip administrated for 4 weeks by immunostaining assay; format: functional, organism-based; settings: dose 0.5-2 mg/kg
[22] = tested on: Mus musculus; test: Antioxidant activity against MCD diet-induced oxidative stress in C57Bl/6 mouse model of NAFLD assessed as reduction of hepatic steatosis in liver at ip administrated for 4 weeks by hematoxylin and eosin staining based assay; format: functional, organism-based
[23] = tested on: Mus musculus; test: Antioxidant activity against MCD diet-induced oxidative stress in C57Bl/6 mouse model of NAFLD assessed as reduction of morphological change in liver at ip administrated for 4 weeks by hematoxylin and eosin staining based assay; format: functional, organism-based
[24] = Cardiotoxicity in zebrafish at 10 uM observed at 48 hrs post fertilization; format: toxicity, Danio rerio
[25] = Acute toxicity in C57BL/6 mouse assessed as histopathological change in heart at 20 mg/kg,ip qd administrated for 3 consecutive days and measured on day 4 by hematoxylin and eosin staining based assay; format: organism-based; settings: in vivo
[26] = Acute toxicity in C57BL/6 mouse assessed as histopathological change in liver at 20 mg/kg,ip qd administrated for 3 consecutive days and measured on day 4 by hematoxylin and eosin staining based assay; format: organism-based; settings: in vivo
[27] = Acute toxicity in C57BL/6 mouse assessed as histopathological change in kidney at 20 mg/kg,ip qd administrated for 3 consecutive days and measured on day 4 by hematoxylin and eosin staining based assay; format: organism-based; settings: in vivo
[28] = Toxicity in C57BL/6 mouse assessed as histopathological change in heart at 2 mg/kg,ip qd administrated for 4 weeks by hematoxylin and eosin staining based assay; format: organism-based; settings: in vivo, 672 h
[29] = Toxicity in C57BL/6 mouse assessed as histopathological change in kidney at 2 mg/kg,ip qd administrated for 4 weeks by hematoxylin and eosin staining based assay; format: organism-based; settings: in vivo, 672 h

T1 sequence (Q8C7D2 whole entry, looked up): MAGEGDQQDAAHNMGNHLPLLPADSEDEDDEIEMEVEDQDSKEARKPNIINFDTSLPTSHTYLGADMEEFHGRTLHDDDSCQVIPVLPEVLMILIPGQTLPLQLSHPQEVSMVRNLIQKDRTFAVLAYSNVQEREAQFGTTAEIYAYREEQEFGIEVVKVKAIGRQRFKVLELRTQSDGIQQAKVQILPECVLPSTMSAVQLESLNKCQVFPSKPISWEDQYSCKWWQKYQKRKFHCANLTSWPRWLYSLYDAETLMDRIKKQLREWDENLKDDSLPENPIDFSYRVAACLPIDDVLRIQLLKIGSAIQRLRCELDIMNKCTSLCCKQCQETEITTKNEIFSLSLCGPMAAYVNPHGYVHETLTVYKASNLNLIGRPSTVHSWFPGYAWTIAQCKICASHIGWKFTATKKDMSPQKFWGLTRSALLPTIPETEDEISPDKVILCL
T1 sequence (Q9Z2X8 whole entry, looked up): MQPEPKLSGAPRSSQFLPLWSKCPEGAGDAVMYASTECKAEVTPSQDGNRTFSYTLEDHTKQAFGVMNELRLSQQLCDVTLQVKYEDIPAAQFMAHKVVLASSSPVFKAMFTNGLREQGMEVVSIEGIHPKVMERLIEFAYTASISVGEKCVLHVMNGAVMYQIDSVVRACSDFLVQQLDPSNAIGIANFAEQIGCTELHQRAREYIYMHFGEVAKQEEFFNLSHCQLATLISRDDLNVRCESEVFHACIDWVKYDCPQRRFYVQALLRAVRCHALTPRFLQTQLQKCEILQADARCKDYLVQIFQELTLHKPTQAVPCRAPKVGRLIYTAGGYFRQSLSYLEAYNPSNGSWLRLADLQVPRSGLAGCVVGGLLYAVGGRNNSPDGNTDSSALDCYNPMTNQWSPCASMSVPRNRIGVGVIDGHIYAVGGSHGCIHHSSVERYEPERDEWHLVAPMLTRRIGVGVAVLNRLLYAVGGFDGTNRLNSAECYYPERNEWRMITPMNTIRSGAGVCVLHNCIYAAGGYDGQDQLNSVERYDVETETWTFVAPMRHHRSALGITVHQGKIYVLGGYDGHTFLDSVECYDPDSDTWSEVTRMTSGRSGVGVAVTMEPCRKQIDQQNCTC

CC1(C)CC[C@]2(C(=O)NCCCCCNc3cccc4c3C(=O)N(C3CCC(=O)NC3=O)C4=O)CC[C@]3(C)[C@H](C(=O)C=C4C5(C)C=C(C#N)C(=O)C(C)(C)[C@@H]5CC[C@]43C)[C@@H]2C1 (single isomer, unassigned)
Activity [1]: Dose-Dependent Effect | Activity [2]: Tde | Activity [3]: Active | Activity [4]: inactive | Activity [5]: inactive | Activity [6]: Non-Toxic | Activity [7]: Active | Activity [8]: Active | Activity [9]: Active | Activity [10]: Dose-Dependent Effect | Activity [11]: Dose-Dependent Effect | Activity [12]: Dose-Dependent Effect | Activity [13]: Dose-Dependent Effect | Activity [14]: Active | Activity [15]: Active | Activity [16]: Non-Toxic | Activity [17]: Dose-Dependent Effect | Activity [18]: Dose-Dependent Effect | Activity [19]: Active | Activity [20]: Active | Activity [21]: Active | Activity [22]: Dose-Dependent Effect | Activity [23]: Dose-Dependent Effect | Activity [24]: Non-Toxic | Activity [25]: Toxic | Activity [26]: Non-Toxic | Activity [27]: Non-Toxic | Activity [28]: Non-Toxic | Activity [29]: Non-Toxic
